Assay results: patent publication US20250026741A1, “INHIBITORS OF THE ONCOGENIC SHP2 PHOSPHATASE AND USES THEREOF” (Sanford Burnham Prebys Medical Discovery Institute, priority 2021, published 2025)
Read-outs that look alike come from different tables or passages of the source.

Tests used:
Assay type in all cases: biochemical
[1] = target: striatal-enriched tyrosine phosphatase (STEP) catalytic domain (Homo sapiens (Human), UniProt P54829); test: DiFMUP phosphatase inhibition assay, STEP; settings: for IC50: catalytic domain, DiFMUP at Km (4 μM); for fold selectivity for SHP2 over STEP: from IC50 values against catalytic domains
Experimental: (§1) Selectivity is one of the biggest challenges in PTP inhibitor development. […] Similar to SHP2, we adapted a 384-well plate format DiFMUP assay for recombinant PTP1B and STEP and performed Michaelis-Menten experiments to determine DiFMUP Km values for each phosphatase. IC50 values of our inhibitors for PTP1B and STEP were determined in 10-point dose-response assays with DiFMUP used at the concentration corresponding to the respective Km value. […] Other inhibitors with good relative selectivity for SHP2 included #02 (13-fold selective over PTP1B; 73-fold selective over STEP) and #05 (5-fold selective over PTP1B; >71-fold selective over STEP).
(§2) SHP2 inhibitors were tested at room temperature (RT) in a 384-well plate format standard phosphatase fluorescence intensity assay using DiFMUP (Invitrogen/Thermo Fisher Scientific, Carlsbad, CA) as a substrate and a total reaction volume of 25 μL. SHP2 inhibitors or vehicle (DMSO) were spotted in triplicate into a black Greiner FLUOTRAC™ 200 384-well microplate (#781076, Greiner) for a 10-point dose-response assay using an Echo®555 Liquid Handler (Labcyte, Inc., San Jose, CA). PTP working solutions were prepared at a 0.625 nM concentration (for a final concentration of 0.5 nM) in buffer containing 50 mM Bis-Tris pH 6.0, 50 mM NaCl, 5 mM DTT, and 0.01% Tween® 20. Prior to the assay, a dually phosphorylated insulin receptor substrate 1 (IRS-1) peptide [625 nM (500 nMfinal) (30)] was added to full-length WT SHP2 working solutions and incubated for 20 min. DiFMUP working solutions at 5× final concentration were prepared in 50 mM Bis-Tris pH 6.0, 50 mMNaCl, and 0.01% Tween 20. 20 μL of PTP working solution was dispensed into the microplate and incubated with inhibitor for 20 min at RT. […] The reaction was initiated by addition of 5 μL DiFMUP working solutions. Fluorescence intensity was measured in kinetic mode (every minute for 7 or 10 min) using a Tecan Spark® Multimode Microplate Reader (Tecan, Groedig, Austria) with an excitation wavelength of 360 nm and an emission wavelength of 460 nm. The initial rates were determined from the linear progression curves of the PTP reaction. The nonenzymatic hydrolysis of the substrate was corrected by using a control without addition of enzyme. IC50 values were calculated from the corrected initial rates by nonlinear regression using the program GraphPad Prism (GraphPad Software, Inc., San Diego, CA) Version 8. Dose-response inhibition assays of SHP2cat using the substrate OMFP were performed similarly as described above for DiFMUP. OMFP was used at a concentration corresponding to its Km value for SHP2cat (50 μM final). Fluorescence intensity was measured in kinetic mode (every minute for 10 min) using a Tecan Spark Multimode Microplate Reader with an excitation wavelength of 485 nm and an emission wavelength of 535 nm. Initial rates were determined and IC50 vales calculated as described above.

PTP1B catalytic domain = PTP1B catalytic domain (Homo sapiens (Human), UniProt P18031); test: DiFMUP phosphatase inhibition assay, PTP1B; settings: for IC50: catalytic domain, DiFMUP at Km (25 μM); for fold selectivity for SHP2 over PTP1B: from IC50 values against catalytic domains
Experimental: as §1, §2

[2] = target: full-length SHP2 wild-type (SHP2-WT) (Homo sapiens (Human), UniProt Q06124); test: DiFMUP fluorescence intensity phosphatase inhibition assay, SHP2-WT activated with IRS-1 peptide; settings: DiFMUP at Km (60 μM), IRS-1 peptide activated
Excerpt: (§3) To test the synthesized compounds for their potential to inhibit SHP2 activity, a fluorescence intensity-based assay using 6,8-difluoro-4-methylumbelliferyl phosphate (DiFMUP) as the substrate was adapted for three recombinant SHP2 constructs: 1) the SHP2 catalytic domain (SHP2cat; residues 248-527), 2) the full-length SHP2-E76K oncogenic mutant, and 3) the full-length SHP2 wild-type (SHP2-WT). The recombinant SHP2 proteins were expressed and purified. A dually phosphorylated peptide derived from the insulin receptor substrate 1 (IRS-1) served as a surrogate binding protein and was used to activate SHP2-WT. […] Michaelis-Menten experiments to determine the DiFMUP Michaelis-Menten constant (Kmn) for each SHP2 construct were performed and yielded the following values: SHP2-WT, Km=60 μM; SHP2-E76K, Km=20 μM; SHP2cat, Km=20 μM. Relative maximum rates (Vmax) of the DiFMUP reactions were as follows: SHP2-WT, Vmax=871 AFU/min; SHP2-E76K, Vmax, =2730 AFU/min; SHP2cat, Vmax=2912 AFU/min. IC50 values for each compound were determined from initial rates in 10-point dose-response assays using DiFMUP at a concentration corresponding to its Km value for the respective SHP2 construct.
as §2

[3] = target: full-length SHP2-E76K oncogenic mutant (Homo sapiens (Human), UniProt Q06124, E76K); test: DiFMUP fluorescence intensity phosphatase inhibition assay, SHP2-E76K
Excerpt: as §3, §2

[4] = target: SHP2 catalytic domain (SHP2cat; residues 248-527) (Homo sapiens (Human), UniProt Q06124); test: DiFMUP fluorescence intensity phosphatase inhibition assay, SHP2cat
Excerpt: as §3, §2

[5] = DiFMUP at Km (20 μM), 10-point dose-response, read-out: SHP2-E76K IC50
[6] = DiFMUP at Km (20 μM), read-out: SHP2cat IC50
[7] = catalytic domain, DiFMUP at Km, read-out: SHP2 IC50

striatal-enriched tyrosine phosphatase (STEP) catalytic domain, sequence (P54829 280-565 limits assumed): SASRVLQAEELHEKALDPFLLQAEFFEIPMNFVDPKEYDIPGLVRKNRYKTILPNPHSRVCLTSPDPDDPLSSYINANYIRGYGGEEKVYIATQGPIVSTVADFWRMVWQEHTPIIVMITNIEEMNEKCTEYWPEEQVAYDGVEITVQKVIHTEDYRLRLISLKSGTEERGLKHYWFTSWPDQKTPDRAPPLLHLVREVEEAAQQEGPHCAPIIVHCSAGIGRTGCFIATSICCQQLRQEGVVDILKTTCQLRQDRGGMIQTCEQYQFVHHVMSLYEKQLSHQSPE
SHP2 catalytic domain (SHP2cat; residues 248-527), sequence (Q06124 248-527): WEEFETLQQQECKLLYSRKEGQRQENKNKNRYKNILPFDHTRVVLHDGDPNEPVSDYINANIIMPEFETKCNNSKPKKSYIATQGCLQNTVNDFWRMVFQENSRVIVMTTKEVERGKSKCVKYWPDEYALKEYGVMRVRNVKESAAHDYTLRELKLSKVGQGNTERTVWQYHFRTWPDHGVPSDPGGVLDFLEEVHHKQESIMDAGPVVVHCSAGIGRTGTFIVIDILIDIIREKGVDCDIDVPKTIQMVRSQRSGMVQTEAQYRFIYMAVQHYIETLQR
PTP1B catalytic domain, sequence (P18031 1-300): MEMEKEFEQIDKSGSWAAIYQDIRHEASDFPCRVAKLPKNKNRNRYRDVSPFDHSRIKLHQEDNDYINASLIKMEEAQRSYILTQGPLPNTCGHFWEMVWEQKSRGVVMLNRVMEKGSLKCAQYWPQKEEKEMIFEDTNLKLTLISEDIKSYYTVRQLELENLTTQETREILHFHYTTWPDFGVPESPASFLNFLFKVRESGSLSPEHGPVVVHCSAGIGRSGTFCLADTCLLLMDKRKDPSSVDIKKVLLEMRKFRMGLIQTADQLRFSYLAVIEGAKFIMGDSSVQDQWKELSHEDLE
full-length SHP2-E76K oncogenic mutant, sequence (Q06124 whole entry E76K): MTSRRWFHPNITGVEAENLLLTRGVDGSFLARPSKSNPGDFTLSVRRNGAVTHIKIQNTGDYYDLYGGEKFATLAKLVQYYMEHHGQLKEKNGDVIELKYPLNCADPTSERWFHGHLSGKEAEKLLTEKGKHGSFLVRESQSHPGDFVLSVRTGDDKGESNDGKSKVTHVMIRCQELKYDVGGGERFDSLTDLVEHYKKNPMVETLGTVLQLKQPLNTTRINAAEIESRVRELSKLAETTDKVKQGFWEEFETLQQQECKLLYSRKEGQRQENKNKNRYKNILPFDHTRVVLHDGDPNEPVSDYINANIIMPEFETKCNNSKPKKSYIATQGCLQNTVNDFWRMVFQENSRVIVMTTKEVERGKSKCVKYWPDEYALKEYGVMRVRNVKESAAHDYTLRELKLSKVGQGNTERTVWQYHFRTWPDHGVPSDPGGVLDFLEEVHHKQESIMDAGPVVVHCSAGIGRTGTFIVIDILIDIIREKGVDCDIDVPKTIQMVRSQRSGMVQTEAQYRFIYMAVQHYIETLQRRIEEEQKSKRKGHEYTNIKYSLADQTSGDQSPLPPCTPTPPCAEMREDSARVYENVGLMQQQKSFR

Row | IC50 [1] [µM] | fold selectivity for SHP2 over STEP [1] [fold] | IC50 (PTP1B catalytic domain) [µM] | fold selectivity for SHP2 over PTP1B (PTP1B catalytic domain) [fold] | IC50 [2] [µM] | IC50 [3, 5] [µM] | IC50 [4, 6] [µM] | IC50 [4, 7] [µM] | IC50 ([3]; IC50 against SHP2-E76K, in vitro phosphatase inhibition assay, screening hit, heading: IC50 against SHP2-E76K) [µM] | SMILES
1 | 44 | 200 | 6.8 | 31 | 1 to 20 | ≤ 1 | ≤ 1 | 0.22 | – | Nc1ccc(NC(=O)c2cc(-c3ccc(/C=C4\Sc5ccccc5C4=O)o3)ccc2O)cc1 [#01, (Z)—N-(4-Aminophenyl)-2-hydroxy-5-(5-((3-oxobenzo[b]thiophen-2(3H)-ylidene)methyl)furan-2-yl)benzamide]
2 | > 100 | – | 7.4 | 5 | 1 to 20 | 1 to 20 | 1 to 20 | 1.4 | – | N#Cc1cc(-c2ccc(/C=C3\Sc4ccccc4C3=O)o2)ccc1O [#05, (Z)-2-Hydroxy-5-(5-((3-oxobenzo[b]thiophen-2(3H)-ylidene)methyl)furan-2-yl)benzonitrile]
3 | 53 | 73 | 9.4 | 13 | 1 to 20 | 1 to 20 | ≤ 1 | 0.73 | 1.8 | O=C(Nc1ccccc1)c1cc(-c2ccc(/C=C3\Sc4ccccc4C3=O)o2)ccc1O [#02, (Z)-2-hydroxy-5-(5-((3-oxobenzo[b]thiophen-2(3H)-ylidene)methyl)furan-2-yl)-N-phenylbenzamide]
